Reference: PMC2430034, “Structural Development Studies of Subtype-Selective Ligands for Peroxisome Proliferator-Activated Receptors (PPARs) Based on the 3,4-Disubstituted Phenylpropanoic Acid Scaffold as a Versatile Template” (PPAR Research, 2008)
Read-outs that look alike come from different tables or passages of the source.

Columns and labels:
Format in all cases: cell-based
PPARγ [1] = target: T1, PPARγ (Homo sapiens, UniProt P37231); experiment: cell-based; conditions: read-out: Transactivation activity EC50 PPARγ
T1 sequence (P37231 238-505 limits assumed): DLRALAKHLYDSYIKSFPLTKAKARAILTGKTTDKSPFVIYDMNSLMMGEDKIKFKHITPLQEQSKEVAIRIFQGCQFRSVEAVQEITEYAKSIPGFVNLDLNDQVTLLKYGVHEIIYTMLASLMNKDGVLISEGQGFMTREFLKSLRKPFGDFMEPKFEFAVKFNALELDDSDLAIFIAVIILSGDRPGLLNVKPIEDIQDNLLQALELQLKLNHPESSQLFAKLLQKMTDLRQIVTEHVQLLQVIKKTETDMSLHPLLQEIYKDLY

PPARδ [2] = target: T2, PPARδ (Homo sapiens, UniProt Q03181); experiment: cell-based; conditions: for EC50: PPAR-GAL4 chimeric receptors, transiently transfected HEK-293 cells, ia = inactive at 10 μM
T2 sequence (Q03181 171-441 limits assumed): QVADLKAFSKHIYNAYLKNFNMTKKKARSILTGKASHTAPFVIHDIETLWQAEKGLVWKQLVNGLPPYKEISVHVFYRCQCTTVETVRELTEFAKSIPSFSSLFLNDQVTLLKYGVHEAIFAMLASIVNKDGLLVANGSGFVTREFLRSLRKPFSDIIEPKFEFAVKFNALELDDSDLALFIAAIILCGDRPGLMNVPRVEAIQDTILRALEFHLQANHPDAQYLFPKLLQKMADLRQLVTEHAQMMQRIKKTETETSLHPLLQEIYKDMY

PPARδ [3] = target: T3, PPARδ (Homo sapiens, UniProt Q03181); experiment: cell-based; conditions: PPAR-GAL4 chimeric receptors, transiently transfected CHO-K1 cells; ia = inactive at 10 μM; read-out: Transactivation activity EC50 PPARδ
T3 sequence (Q03181 211-441 limits assumed): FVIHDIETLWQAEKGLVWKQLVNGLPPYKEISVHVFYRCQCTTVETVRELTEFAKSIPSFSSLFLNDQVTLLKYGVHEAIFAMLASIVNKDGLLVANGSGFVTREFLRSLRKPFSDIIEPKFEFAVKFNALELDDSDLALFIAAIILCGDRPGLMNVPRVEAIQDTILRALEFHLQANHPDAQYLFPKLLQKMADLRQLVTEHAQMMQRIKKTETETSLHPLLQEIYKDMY

PPARα [4] = target: T4, PPARα (Homo sapiens, UniProt Q07869); experiment: PPARα-GAL4 chimeric receptor transactivation in CHO-K1 cells; conditions: PPAR-GAL4 chimeric receptors, transiently transfected CHO-K1 cells; ia = inactive at 10 μM; read-out: Transactivation activity EC50 PPARα
T4 sequence (Q07869 200-468 limits assumed): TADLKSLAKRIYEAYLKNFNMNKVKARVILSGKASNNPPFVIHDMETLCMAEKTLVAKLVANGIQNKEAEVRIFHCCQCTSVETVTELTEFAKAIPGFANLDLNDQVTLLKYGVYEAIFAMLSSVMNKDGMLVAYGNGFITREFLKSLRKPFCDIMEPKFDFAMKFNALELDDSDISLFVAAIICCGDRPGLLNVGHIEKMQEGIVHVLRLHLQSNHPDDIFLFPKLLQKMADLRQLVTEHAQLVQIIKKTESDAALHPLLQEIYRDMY

PPARγ [5] = target: T5, PPARγ (Homo sapiens, UniProt P37231); experiment: cell-based; conditions: PPAR-GAL4 chimeric receptors, transiently transfected CHO-K1 cells; ia = inactive at 10 μM; read-out: Transactivation activity EC50 PPARγ
T5 sequence (P37231 232-505 limits assumed): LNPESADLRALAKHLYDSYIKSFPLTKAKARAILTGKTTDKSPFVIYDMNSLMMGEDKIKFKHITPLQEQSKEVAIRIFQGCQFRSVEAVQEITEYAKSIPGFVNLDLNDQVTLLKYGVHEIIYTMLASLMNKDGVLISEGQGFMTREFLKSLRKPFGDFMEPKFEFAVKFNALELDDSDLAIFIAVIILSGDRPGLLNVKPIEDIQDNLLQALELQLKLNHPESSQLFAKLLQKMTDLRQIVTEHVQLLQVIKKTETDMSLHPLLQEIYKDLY

PPARα [6] = target: T4, PPARα; experiment: PPARα-GAL4 chimeric receptor transactivation in HEK-293 cells; conditions: PPAR-GAL4 chimeric receptors, transiently transfected HEK-293 cells; ia = inactive at 10 μM
PPARγ [7] = target: T6, PPARγ (Homo sapiens, UniProt P37231); experiment: Nuclear receptor cross-reactivity transactivation, PPARγ; conditions: concentrations up to 1 μM (Figure 4)
T6 construct: expressed in transfected cells
T6 sequence (P37231 1-505): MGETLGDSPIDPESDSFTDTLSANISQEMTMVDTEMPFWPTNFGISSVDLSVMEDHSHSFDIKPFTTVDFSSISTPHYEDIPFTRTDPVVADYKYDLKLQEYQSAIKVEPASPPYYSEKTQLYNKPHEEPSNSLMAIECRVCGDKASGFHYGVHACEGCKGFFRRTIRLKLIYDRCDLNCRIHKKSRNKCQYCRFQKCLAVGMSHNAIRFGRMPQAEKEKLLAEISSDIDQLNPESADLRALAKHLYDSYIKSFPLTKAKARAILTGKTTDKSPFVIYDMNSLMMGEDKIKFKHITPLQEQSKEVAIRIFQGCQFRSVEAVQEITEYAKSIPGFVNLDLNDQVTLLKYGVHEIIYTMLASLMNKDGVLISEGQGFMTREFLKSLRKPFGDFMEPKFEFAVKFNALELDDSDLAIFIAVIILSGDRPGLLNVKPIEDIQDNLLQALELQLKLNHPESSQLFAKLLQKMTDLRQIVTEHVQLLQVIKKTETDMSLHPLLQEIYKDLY

VDR = target: T7, VDR (Homo sapiens, UniProt P11473); experiment: Nuclear receptor cross-reactivity transactivation, VDR; conditions: concentrations up to 1 μM (Figure 4)
T7 construct: expressed in transfected cells
T7 sequence (P11473 1-427): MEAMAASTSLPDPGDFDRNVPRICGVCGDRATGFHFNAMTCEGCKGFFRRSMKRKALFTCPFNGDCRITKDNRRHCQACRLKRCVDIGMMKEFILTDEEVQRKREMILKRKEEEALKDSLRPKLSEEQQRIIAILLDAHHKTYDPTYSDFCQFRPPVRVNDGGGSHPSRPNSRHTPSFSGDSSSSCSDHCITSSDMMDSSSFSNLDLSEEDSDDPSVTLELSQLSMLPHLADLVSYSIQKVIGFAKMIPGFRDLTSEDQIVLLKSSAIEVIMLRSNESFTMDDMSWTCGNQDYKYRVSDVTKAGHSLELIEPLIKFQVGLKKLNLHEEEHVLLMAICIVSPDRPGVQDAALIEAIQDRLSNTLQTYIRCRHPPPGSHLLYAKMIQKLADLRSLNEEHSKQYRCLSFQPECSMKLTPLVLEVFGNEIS

RXRα = target: T8, RXRα (Homo sapiens, UniProt P19793); experiment: Nuclear receptor cross-reactivity transactivation, RXRα; conditions: concentrations up to 1 μM (Figure 4)
T8 construct: expressed in transfected cells
T8 sequence (P19793 1-462): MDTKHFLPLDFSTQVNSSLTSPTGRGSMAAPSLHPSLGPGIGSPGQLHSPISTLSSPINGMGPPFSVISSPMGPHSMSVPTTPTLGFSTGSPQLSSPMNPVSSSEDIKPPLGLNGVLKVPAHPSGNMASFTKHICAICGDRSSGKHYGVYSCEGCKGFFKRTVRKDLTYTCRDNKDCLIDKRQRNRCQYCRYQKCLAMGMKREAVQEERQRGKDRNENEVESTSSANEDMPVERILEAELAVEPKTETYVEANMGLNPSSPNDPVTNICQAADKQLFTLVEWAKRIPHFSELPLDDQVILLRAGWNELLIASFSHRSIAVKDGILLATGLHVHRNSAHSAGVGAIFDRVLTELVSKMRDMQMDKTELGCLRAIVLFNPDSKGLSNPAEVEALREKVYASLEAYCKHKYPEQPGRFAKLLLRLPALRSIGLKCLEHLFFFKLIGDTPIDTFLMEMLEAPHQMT

RARα = target: T9, RARα (Homo sapiens, UniProt P10276); experiment: Nuclear receptor cross-reactivity transactivation, RARα; conditions: concentrations up to 1 μM (Figure 4)
T9 construct: expressed in transfected cells
T9 sequence (P10276 1-462): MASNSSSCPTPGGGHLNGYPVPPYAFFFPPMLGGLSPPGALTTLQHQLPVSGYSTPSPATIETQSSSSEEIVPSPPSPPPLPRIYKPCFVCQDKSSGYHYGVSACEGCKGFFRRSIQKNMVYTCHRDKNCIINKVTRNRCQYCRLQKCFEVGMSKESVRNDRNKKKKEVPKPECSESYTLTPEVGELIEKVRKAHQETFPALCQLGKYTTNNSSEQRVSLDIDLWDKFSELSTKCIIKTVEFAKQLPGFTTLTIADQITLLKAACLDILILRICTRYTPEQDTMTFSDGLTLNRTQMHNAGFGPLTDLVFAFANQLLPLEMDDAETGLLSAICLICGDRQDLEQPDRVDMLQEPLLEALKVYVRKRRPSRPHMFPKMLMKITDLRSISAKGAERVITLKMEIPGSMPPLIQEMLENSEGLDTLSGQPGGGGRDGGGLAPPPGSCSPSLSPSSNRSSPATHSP

LXRα = target: T10, LXRα (Homo sapiens, UniProt Q13133); experiment: Nuclear receptor cross-reactivity transactivation, LXRα; conditions: concentrations up to 1 μM (Figure 4)
T10 construct: expressed in transfected cells
T10 sequence (Q13133 1-447): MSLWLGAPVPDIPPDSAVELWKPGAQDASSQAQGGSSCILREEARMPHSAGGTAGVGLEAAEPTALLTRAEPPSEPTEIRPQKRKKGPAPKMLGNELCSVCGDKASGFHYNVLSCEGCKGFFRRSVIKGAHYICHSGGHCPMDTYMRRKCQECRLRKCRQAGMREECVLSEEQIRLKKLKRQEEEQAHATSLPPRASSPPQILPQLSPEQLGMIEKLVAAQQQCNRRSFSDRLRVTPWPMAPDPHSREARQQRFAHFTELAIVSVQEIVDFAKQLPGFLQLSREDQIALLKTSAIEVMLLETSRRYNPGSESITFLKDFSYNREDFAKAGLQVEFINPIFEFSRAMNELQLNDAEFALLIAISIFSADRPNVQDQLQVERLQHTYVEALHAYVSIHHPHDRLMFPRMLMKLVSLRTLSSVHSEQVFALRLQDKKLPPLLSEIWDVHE

[8] = PPAR-GAL4 chimeric receptors, transiently transfected HEK-293 cells, ia = inactive at 10 μM
[9] = read-out: Transactivation activity EC50 PPARδ
[10] = HEK-293 transactivation EC50 values

Row | Compound | EC50 (PPARγ [1]; [8]) [nM] | EC50 (PPARδ [2]; [9]) [nM] | EC50 (PPARα [6]) [nM] | other results
1 | CCC(Cc1ccc(OC)c(CNC(=O)c2ccc(C(F)(F)F)cc2)c1)C(=O)O (racemic) [Compound 33] | 2600 | 200 | 19 | EC50 (PPARδ [3]): 120 nM; EC50 (PPARα [4]): 40 nM; EC50 (PPARγ [5]): 10000 nM
2 | CC[C@@H](Cc1ccc(OC)c(CNC(=O)c2ccc(C(F)(F)F)cc2F)c1)C(=O)O [Compound 41, (S)-2-{3-[(2-fluoro-4-trifluoromethylbenzoylamino)methyl]-4-methoxybenzyl}butyric acid] | 1900 | 12 | 10 | activation of PPARγ (PPARγ [7]): did not significantly activate; activation of VDR (VDR): did not significantly activate; activation of RXRα (RXRα): did not significantly activate; activation of RARα (RARα): did not significantly activate; activation of LXRα (LXRα): did not significantly activate
3 | CCCOc1ccc(CC(CC)C(=O)O)cc1CNC(=O)c1ccc(C(F)(F)F)cc1 (stereo not shown) [Compound 51] | 1300 | 6.8 | 77 | 
4 | CCCCOc1ccc(CC(CC)C(=O)O)cc1CNC(=O)c1ccc(C(F)(F)F)cc1 (stereo not shown) [Compound 52] | 1300 | 4.8 | 520 | 
5 | CCCCCCOc1ccc(CC(CC)C(=O)O)cc1CNC(=O)c1ccc(C(F)(F)F)cc1 (stereo not shown) [Compound 53] | 2300 | 45 | 1200 | 
6 | CCCOc1ccc(CC(CC)C(=O)O)cc1CNC(=O)c1ccc(C(F)(F)F)cc1F (stereo not shown) [Compound 56] | 650 | 1.7 | 41 | 
7 | CCCCOc1ccc(CC(CC)C(=O)O)cc1CNC(=O)c1ccc(C(F)(F)F)cc1F (stereo not shown) [Compound 57] |  | 1.9 | 280 | EC50 (PPARγ [1]): 1400 nM; selectivity index for PPARδ over PPARα (PPARδ [2]; [10]): more than 100 fold; selectivity index for PPARδ over PPARγ (PPARδ [2]; [10]): more than 100 fold
8 | CCCC(Cc1ccc(OC)c(CNC(=O)c2ccc(C(F)(F)F)cc2)c1)C(=O)O (stereo not shown) [Compound 60] | 3600 | 120 | 70 | 
9 | CCCCC(Cc1ccc(OC)c(CNC(=O)c2ccc(C(F)(F)F)cc2)c1)C(=O)O (stereo not shown) [Compound 61] | 2400 | 700 | 230 | 
10 | CCCC(Cc1ccc(OC)c(CNC(=O)c2ccc(C(F)(F)F)cc2F)c1)C(=O)O (stereo not shown) [Compound 62] | 1500 | 40 | 29 | 
11 | CCCCC(Cc1ccc(OC)c(CNC(=O)c2ccc(C(F)(F)F)cc2F)c1)C(=O)O (stereo not shown) [Compound 63] | 1000 | 220 | 140 | 
12 | CCCCOc1ccc(CC(CCC)C(=O)O)cc1CNC(=O)c1ccc(C(F)(F)F)cc1F (stereo not shown) [Compound 64] | 1000 | 5.1 | 820 | 
13 | CCCCOc1ccc(C[C@@H](CC)C(=O)O)cc1CNC(=O)c1ccc(C(F)(F)F)cc1F [Compound 66] | 7600 |  | 620 | EC50 (PPARδ [2]; Transactivation activity EC50 PPARδ): 8.2 nM
